Data from US9782398B2, “Pharmaceutical compositions comprising an antipsychotic drug and a VMAT2 inhibitor and uses thereof” (NEUROCRINE BIOSCIENCES, INC., priority 2014, dated 2017).
“Also recorded” adds a separate entry of the source.

System: Male Wistar rats
Test: Conditioned avoidance response (CAR) test of antipsychotic activity
Format: in vivo, rat
Conditions: for ED50: Rattus norvegicus, ip, read-out: ED50 (escape response), dose required to produce 50% of the maximum response; for dose of compound required to produce 8 escapes / dose of compound required to produce 5 escapes: from fitted line
Description: In the CAR paradigm, a rat is trained in a two chamber shuttle box to respond to a conditioned stimulus (auditory) by negative reinforcement. If the animal fails to move to the other chamber upon presentation of an auditory stimulus, a mild foot shock is applied to the side where the rat is located. The rat learns to avoid the mild foot shock by moving to the other chamber upon initiation of the auditory signal, termed a conditioned avoidance response. Crossing to the other chamber during administration of the shock is termed an escape response. If a rat fails to move to the other chamber even upon administration of the foot shock, the rat is considered to have an escape failure.
Rats were trained every day for 3 to 4 weeks. In the training session, rats were placed in the CAR two-way shuttle box and the training period of 20 trials ensued. A trial consisted of a 10-sec presentation of an 80 dB white noise followed by a scrambled 0.6 mA foot shock lasting up to 20 sec. The inter-trial interval ranged from 20-60 sec. The rat learned to avoid shock by moving from one compartment to the other when the conditioned stimulus was presented (a conditioned avoidance response). A rat was deemed sufficiently trained if it avoided the shock when presented with the conditioned stimulus at least 19 times out of the 20 trials.
On test day, trained animals were acclimated in the test room for 30 minutes prior to testing. They were then dosed with compound and placed in the CAR two-way shuttle box. In the test, 20 trials were performed on each rat. In each trial the conditioned stimulus was applied (10-sec presentation of 80 dB white noise), followed by the foot shock (a scrambled 0.6 mA foot shock lasting up to 20 sec). If the animal moved to the other chamber on presentation of the conditioned stimulus, it was scored as a conditioned avoidance response. If it moved upon presentation of the foot shock, it was scored as an escape. […] Antipsychotic efficacy is evident by an increase in the number of escapes. Data were analyzed by analysis of variance (ANOVA) followed by post-hoc comparisons with the Bonferroni Test when appropriate. An effect is considered significant if p<0.05. Outliers defined as two standard deviations above or below the mean were detected and were removed from all analysis. Results are reported as mean±SEM for number of escapes.
Animals: Male Wistar rats from Harlan (Indianapolis, Ind.) were used in the study. Upon receipt, rats were assigned unique identification numbers and were group housed with 3 rats per cage in polycarbonate cages with micro-isolator filter tops. All rats were examined, handled, and weighed prior to initiation of the study to assure adequate health and suitability. The rats were maintained at 12/12 light/dark cycle with lights on at 6:00 A.M. The room temperature was maintained between 20 and 23° C. with a relative humidity maintained around 50%. Chow and water were provided ad libitum for the duration of the study. For each test, animals were randomly assigned across treatment groups. Each treatment group contained 10 animals at time of testing.
Test Compounds: Risperidone (0.03, 0.1, 0.3, and 1 mg/kg) was dissolved in 10% DMSO and administered i.p. 30 min prior to testing at a dose volume of 1 ml/kg. […] The vehicle control group received 10% DMSO (i.p., 30 min pretreatment, 1 ml/kg) immediately followed by administration of sterile water (p.o., 1 ml/kg).
Test Compounds: Olanzapine (0.3, 0.6, 1 and 3 mg/kg) was dissolved in 10% DMSO and administered i.p. 30 min prior to testing at a dose volume of 1 ml/kg.
10% DMSO (i.p., 30 min pretreatment, 1 ml/kg) immediately followed by administration of sterile water (p.o., 1 ml/kg) was used as the vehicle control group.
Test Compounds: Risperidone (0.1, 0.3, and 1 mg/kg) was dissolved in 10% DMSO and administered i.p. 30 min prior to testing at a dose volume of 1 ml/kg.

[1] = combination with Compound 5-1 0.3 mg/kg vs risperidone singly, rat
[2] = combination with R,R,R-DHTBZ 0.15 mg/kg vs risperidone singly, rat
[3] = risperidone i.p. administered singly, rat
[4] = combination with R,R,R-DHTBZ 0.15 mg/kg vs olanzapine singly, rat
[5] = olanzapine i.p. administered singly, rat

## Cc1nc2n(c(=O)c1CCN1CCC(c3noc4cc(F)ccc34)CC1)CCCC2 [risperidone]
  ED50: 0.14 mg/kg
[1]
  decrease of risperidone dose required to produce 8 escapes: approximately 7 fold
  reduction of the risperidone dose: 86%
[2]
  decrease of ED50 of risperidone: approximately 6 fold
  reduction of the risperidone dose: 83%
Risperidone 0.1 mg/kg i.p. administered singly, 30 min prior to testing, rat
  number of escapes compared to vehicle: did not result in changes from the vehicle results; also recorded: did not increase
[3]
  dose necessary to show antipsychotic efficacy in the CAR paradigm: 0.3 mg/kg
  dose of compound required to produce 8 escapes: 0.26 mg/kg
Risperidone i.p. in combination with Compound 5-1 0.3 mg/kg p.o., rat
  dose of compound required to produce 8 escapes: 0.038 mg/kg
Risperidone i.p. with addition of Compound 5-1 0.3 mg/kg p.o., rat
  doses of risperidone resulting in antipsychotic activity: 0.1 mg/kg

## Cc1cc2c(s1)Nc1ccccc1N=C2N1CCN(C)CC1 [olanzapine]
  ED50: 1.2 mg/kg
Combination with Compound 5-1 0.3 mg/kg vs olanzapine singly, rat
  reduction of the olanzapine dose: 80%
[4]
  decrease of ED50 of olanzapine: approximately 2 fold
  reduction of the olanzapine dose: 50%
[5]
  dose necessary to show antipsychotic efficacy in the CAR paradigm: 1 mg/kg
  dose of compound required to produce 5 escapes: 0.93 mg/kg
Olanzapine i.p. in combination with Compound 5-1 0.3 mg/kg p.o., rat
  dose of compound required to produce 5 escapes: 0.18 mg/kg
Olanzapine i.p. with addition of Compound 5-1 0.3 mg/kg p.o., rat
  dose of olanzapine resulting in antipsychotic activity: 0.6 mg/kg
Olanzapine i.p. with addition of R,R,R-DHTBZ 0.15 mg/kg p.o., rat
  dose of olanzapine resulting in antipsychotic activity: 0.6 mg/kg

## COc1cc2c(cc1OC)[C@H]1C[C@@H](O)[C@H](CC(C)C)CN1CC2 [R,R,R-DHTBZ, (2R,3R,11bR)-3-isobutyl-9,10-dimethoxy-1,3,4,6,7,11b-hexahydro-2H-pyrido[2,1-a]isoquinolin-2-ol]
R,R,R-DHTBZ 0.15 mg/kg p.o. administered singly, 30 min prior to testing, rat
  number of escapes compared to vehicle: did not increase; also recorded: did not result in changes from the vehicle results
R,R,R-DHTBZ 0.15 mg/kg p.o. administered singly, 30 min prior to testing, rat, listed as R,R,R DHTBZ
  number of escapes compared to vehicle: showed no antipsychotic activity

## COc1cc2c(cc1OC)[C@H]1C[C@@H](CO)[C@H](CC(C)C)CN1CC2 [Compound 5-1, [(2R,3S,11bR)-9,10-Dimethoxy-3-(2-methylpropyl)-1H,2H,3H,4H,6H,7H,11bH-pyrido[2,1-a]isoquinolin-2-yl]methanol]
Compound 5-1 0.3 mg/kg p.o. administered singly, 60 min prior to testing, rat, 0.3 mg/kg
  number of escapes compared to vehicle: did not result in changes from the vehicle results; also recorded: showed no antipsychotic activity; also recorded: did not increase
